Data published in patent US8710091B2, “Imidazolidine-2,4-dione derivatives, and use thereof as a cancer drug” (Ipsen Pharma S.A.S., priority 2009, dated 2014).

Columns and labels:
LNCaP cells = assay: Anti-proliferative activity on LNCaP in complete medium (WST-1); format: cell-based; details: Homo sapiens, 144 h, 144 h incubation, read-out: IC50 on the LNCaP cells in culture (concentration inhibiting cell proliferation by 50%)
Method: The anti-proliferative activity of the compounds of the present invention is determined on LNCaP in complete medium by applying the following experimental procedure:
The LNCaP cell type (ATCC, 1740) originating from a prostate carcinoma expressing the androgen receptor, this line is hormone-dependent.
Maintenance of the LNCaP line is carried out in complete culture medium: RPMI, 10% of foetal calf serum, 2 mM glutamine, 100 U/ml penicillin, 0.1 mg/ml of streptomycin and 0.01M HEPES, 1 mM sodium pyruvate, 40% of D-glucose. • Seeding the plates:
The LNCaP line is seeded at 20,000 cells/well in 90 μl of complete medium in 96-well plates coated with poly-D-lysine (Biocoat, Costar). • Treatment of the cells: 24 h after the seeding, the cells are treated with 10 μl/well of compound diluted in the culture medium. Experiments of the effect of doses of the compound are carried out on a scale of 1 nM to 100 µM. The concentrations used are the following: 1 nM/10/30/100/300/1000/3000/10,000/100,000 nM. Testosterone (SIGMA T1500) is used as a reference and tested at the same concentrations. The cells are incubated for 144 h at 37° C., 5% CO2. • Reading: On D6, 10 μL of the “WST-1 cell proliferation” reagent (Roche ref 1644807) is added to each well. After incubation for 2 hours at 37° C., 5% CO2, the absorbance at 450 nm is measured by spectrophotometry (Envision, Perkin Elmer). • Results: The experiments are carried out in duplicate and the best compounds are tested twice. […] 2. Antiproliferative Activity on LNCaP in Medium without Steroids: […]

DU145 cells = assay: Antiproliferative activity on DU-145 in complete medium (WST-1); format: cell-based; details: Homo sapiens, 144 h incubation, read-out: IC50 on the DU145 cells in culture (concentration inhibiting cell proliferation by 50%)
Method: The anti-proliferative activity of the compounds of the present invention is determined on DU-145 in complete medium.
Maintenance of the DU-145 line is carried out in DMEM, 10% of foetal calf serum, 2 mM of glutamine, 100 U/ml of penicillin, 0.1 mg/ml of streptomycin. • Seeding the plates: • The DU145 line is seeded at 400 or 800 cells/well in 90 μl of DMEM complete medium in 96-well plates (TPP). • Treatment of the cells: 24 h after the seeding, the cells are treated with 10 μl/well of compound diluted in the culture medium. Experiments showing the dose-effect of the compound are carried out on a scale of 1 nM to 100 μM. The concentrations used are the following: 1 nM/10/30/100/300/1000/3000/10,000/100,000 nM. The cells are incubated for 144 h at 37° C., 5% CO2. • Reading: On D6, 10 μL, of cell proliferation reagent WST-1 (Roche ref 1644807) is added to each well. After incubation for 2 to 4 hours at 37° C., 5% CO2, the absorbance at 450 nm is measured by spectrophotometry (Envision, Perkin Elmer). • Results: The experiments are carried out in duplicate and the best compounds are tested twice. […] 4. Measurement of the Disappearance of the Androgen Receptor

IC50 (LNCaP cells) [µM] | IC50 (DU145 cells) [µM] | Structure (SMILES)
< 2 | > 10 | CC(=O)N(C)c1ccc(N2C(=O)N(CCCCCCCCC[S+]([O-])CCCC(F)(F)C(F)(F)F)C(C)(C)C2=O)cc1C(F)(F)F (stereo not shown) [Example 40, N-[4-(4,4-dimethyl-2,5-dioxo-3-{9-[(4,4,5,5,5-pentafluoropentyl)sulphinyl]nonyl}imidazolidin-1-yl)-2-(trifluoromethyl)phenyl]-N-methylacetamide]
 | > 10 | CC1(C)C(=O)N(c2ccc([N+](=O)[O-])c(C(F)(F)F)c2)C(=O)N1CCCCCCCCCCSCCCC(F)(F)C(F)(F)F [Example 8, 5,5-dimethyl-3-[4-nitro-3-(trifluoromethyl)phenyl]-1-{10-[(4,4,5,5,5-pentafluoropentyl)thio]decyl}imidazolidine-2,4-dione]
< 2 |  | CC1(C)C(=O)N(c2ccc([N+](=O)[O-])c(C(F)(F)F)c2)C(=O)N1CCCCCCCCCS(=N)(=O)CCCC(F)(F)C(F)(F)F (stereo not drawn) [Example 46, 5,5-dimethyl-3-[4-nitro-3-(trifluoromethyl)phenyl]-1-{9-[S-(4,4,5,5,5-pentafluoropentyl)sulphonimidoyl]nonyl}imidazolidine-2,4-dione]
< 2 | > 10 | CCC(C)NC(=O)Nc1ccc(N2C(=O)N(CCCCCCCCC[S+]([O-])CCCC(F)(F)C(F)(F)F)C(C)(C)C2=O)cc1C (stereo not shown) [Example 28, 1-[4-(4,4-dimethyl-2,5-dioxo-3-{9-[(4,4,5,5,5-pentafluoropentyl)sulphinyl]nonyl}imidazolidin-1-yl)-2-methylphenyl]-3-(1-methylpropyl)urea]
 | > 10 | CC1(C)C(=O)N(c2ccc([N+](=O)[O-])c(C(F)(F)F)c2)C(=O)N1CCCCCCCCCC[S+]([O-])CCCC(F)(F)C(F)(F)F (stereo not shown) [Example 9, 5,5-dimethyl-3-[4-nitro-3-(trifluoromethyl)phenyl]-1-{10-[(4,4,5,5,5-pentafluoropentyl)sulphinyl]decyl}imidazolidine-2,4-dione]
 | > 10 | CC1(C)C(=O)N(c2ccc([N+](=O)[O-])cc2C(F)(F)F)C(=O)N1CCCCCCCCC[S+]([O-])CCCC(F)(F)C(F)(F)F (stereo not shown) [Example 35, 5,5-dimethyl-3-[4-nitro-2-(trifluoromethyl)phenyl]-1-{9-[(4,4,5,5,5-pentafluoropentyl)sulphinyl]nonyl}imidazolidine-2,4-dione]
 | > 10 | Cc1cc(N2C(=O)N(CCCCCCCCC[S+]([O-])CCCC(F)(F)C(F)(F)F)C(C)(C)C2=O)ccc1N (stereo not shown) [Example 26, 3-(4-amino-3-methylphenyl)-5,5-dimethyl-1-{9-[(4,4,5,5,5-pentafluoropentyl)sulphinyl]nonyl}imidazolidine-2,4-dione]
 | > 10 | CC1(C)C(=O)N(c2ccc(N)c(C(F)(F)F)c2)C(=O)N1CCCCCCCCCSCCCC(F)(F)C(F)(F)F [Example 16, 3-[4-amino-3-(trifluoromethyl)phenyl]-5,5-dimethyl-1-{9-[(4,4,5,5,5-pentafluoropentyl)thio]nonyl}imidazolidine-2,4-dione]
 | > 10 | CC1(C)C(=O)N(c2ccc([N+](=O)[O-])c(C(F)(F)F)c2)C(=O)N1CCCCCCCCC[S+]([O-])CCCC(F)(F)C(F)(F)F (stereo not shown) [Example 2, 5,5-dimethyl-3-[4-nitro-3-(trifluoromethyl)phenyl]-1-{9-[(4,4,5,5,5-pentafluoropentyl)sulphinyl]nonyl}imidazolidine-2,4-dione]

The next lines start with the compound.

Structure (SMILES) | IC50 (LNCaP cells) [µM] | IC50 (DU145 cells) [µM]
CC1(C)C(=O)N(c2ccc([N+](=O)[O-])c(C(F)(F)F)c2)C(=O)N1CCCCCSCCCC(F)(F)C(F)(F)F [Example 4, 5,5-dimethyl-3-[4-nitro-3-(trifluoromethyl)phenyl]-1-{5-[(4,4,5,5,5-pentafluoropentyl)thio]pentyl}imidazolidine-2,4-dione] | < 2 | > 10
CC1(C)C(=O)N(c2ccc([N+](=O)[O-])c(C(F)(F)F)c2)C(=O)N1CCCCC[S+]([O-])CCCC(F)(F)C(F)(F)F (stereo not shown) [Example 5, 5,5-dimethyl-3-[4-nitro-3-(trifluoromethyl)phenyl]-1-{5-[(4,4,5,5,5-pentafluoropentyl)sulphinyl]pentyl}imidazolidine-2,4-dione] | < 2 | > 10
CC1(C)C(=O)N(c2ccc([N+](=O)[O-])c(C(F)(F)F)c2)C(=O)N1CCCCCCCCCS(=O)(=O)CCCC(F)(F)C(F)(F)F [Example 3, 5,5-dimethyl-3-[4-nitro-3-(trifluoromethyl)phenyl]-1-{9-[(4,4,5,5,5-pentafluoropentyl)sulphonyl]nonyl}imidazolidine-2,4-dione] | < 2 | > 10
CC1(C)C(=O)N(c2ccc([N+](=O)[O-])c(C(F)(F)F)c2)C(=O)N1CCOCCOCC[S+]([O-])CCCC(F)(F)C(F)(F)F (stereo not shown) [Example 37, 5,5-dimethyl-3-[4-nitro-3-(trifluoromethyl)phenyl]-1-[2-(2-{2-[(4,4,5,5,5-pentafluoropentyl)sulphinyl]ethoxy}ethoxy)ethyl]imidazolidine-2,4-dione] | < 2 | > 10
CC1(C)C(=O)N(c2ccc(C#N)c(C(F)(F)F)c2)C(=O)N1CCCCCCCCC[S+]([O-])CCCC(F)(F)C(F)(F)F (stereo not shown) [Example 20, 4-(4,4-dimethyl-2,5-dioxo-3-{9-[(4,4,5,5,5-pentafluoropentyl)sulphinyl]nonyl}imidazolidin-1-yl)-2-(trifluoromethyl)benzonitrile] | < 2 | > 10
CC(=O)Nc1ccc(N2C(=O)N(CCOCCOCC[S+]([O-])CCCC(F)(F)C(F)(F)F)C(C)(C)C2=O)cc1C(F)(F)F (stereo not shown) [Example 39, N-[4-{4,4-dimethyl-2,5-dioxo-3-[2-(2-{2-[(4,4,5,5,5-pentafluoropentyl)sulphinyl]ethoxy}ethoxy)ethyl]imidazolidin-1-yl}-2-(trifluoromethyl)phenyl]acetamide] |  | > 10
CN(C)CC(=O)Nc1ccc(N2C(=O)N(CCCCCCCCCSCCCC(F)(F)C(F)(F)F)C(C)(C)C2=O)cc1C(F)(F)F [Example 42, N-[4-(4,4-dimethyl-2,5-dioxo-3-{9-[(4,4,5,5,5-pentafluoropentyl)sulphanyl]nonyl}imidazolidin-1-yl)-2-(trifluoromethyl)phenyl]-N^2,N^2-dimethylglycinamide] | < 2 | > 10
CC1(C)C(=O)N(c2ccc([N+](=O)[O-])c(C(F)(F)F)c2)C(=O)N1CCOCCOCCSCCCC(F)(F)C(F)(F)F [Example 36, 5,5-dimethyl-3-[4-nitro-3-(trifluoromethyl)phenyl]-1-[2-(2-{2-[(4,4,5,5,5-pentafluoropentyl)sulphanyl]ethoxy}ethoxy)ethyl]imidazolidine-2,4-dione] |  | > 10
CC1(C)C(=O)N(c2ccc([N+](=O)[O-])c(C(F)(F)F)c2)C(=O)N1CCCCCCCCC/S(CCCC(F)(F)C(F)(F)F)=N/C(=O)C(F)(F)F (stereo not shown) [Example 44, N-[(1Z)-(9-{5,5-dimethyl-3-[4-nitro-3-(trifluoromethyl)phenyl]-2,4-dioxoimidazolidin-1-yl}nonyl)(4,4,5,5,5-pentafluoropentyl)-λ^4-sulphanylidene]-2,2,2-trifluoroacetamide] |  | > 10
CC(=O)Nc1ccc(N2C(=O)N(CCOCCOCCSCCCC(F)(F)C(F)(F)F)C(C)(C)C2=O)cc1C(F)(F)F [Example 38, N-[4-{4,4-dimethyl-2,5-dioxo-3-[2-(2-{2-[(4,4,5,5,5-pentafluoropentyl)sulphanyl]ethoxy}ethoxy)ethyl]imidazolidin-1-yl}-2-(trifluoromethyl)phenyl]acetamide] |  | > 10
CC1(C)C(=O)N(c2ccc([N+](=O)[O-])c(C(F)(F)F)c2)C(=O)N1CCCCCCCCCSCCC(F)(F)C(F)(F)C(F)(F)C(F)(F)F [Example 14, 5,5-dimethyl-3-[4-nitro-3-(trifluoromethyl)phenyl]-1-{9-[(3,3,4,4,5,5,6,6,6-nonafluorohexyl)thio]nonyl}imidazolidine-2,4-dione] |  | > 10
